This note sets out measurements from patent US20210395210A1, “INHIBITION OF BACTERIAL CHAPERONIN SYSTEMS” (THE TRUSTEES OF INDIANA UNIVERSITY, priority 2018, published 2021).

Usually IC50 stands for the concentration that gives 50% inhibition.

Each structure is given as a SMILES string. Like-named read-outs stand apart in the source and are kept apart here.

For one data set, the target named is T1, native MDH (Sus scrofa, UniProt P00346).
T1 construct: soluble pig heart MDH from Roche, product #10127248001; purchased Roche 10127248001; host or cells: pig heart
T1 sequence (P00346 25-338): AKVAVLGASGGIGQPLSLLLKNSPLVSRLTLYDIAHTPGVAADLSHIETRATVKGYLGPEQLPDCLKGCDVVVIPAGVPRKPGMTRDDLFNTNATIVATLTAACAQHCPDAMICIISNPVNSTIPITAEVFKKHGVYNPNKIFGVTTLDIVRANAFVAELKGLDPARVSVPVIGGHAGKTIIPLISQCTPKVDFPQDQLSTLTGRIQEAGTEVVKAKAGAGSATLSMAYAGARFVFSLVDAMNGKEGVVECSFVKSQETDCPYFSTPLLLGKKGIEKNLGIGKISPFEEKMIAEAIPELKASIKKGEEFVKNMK
Nature of the data set: Counter-screen for inhibition of native MDH enzymatic activity. The format is biochemical, pig. In short, it runs like this: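 Compounds were added only after GroEL/ES-mediated MDH refolding (45 min, 37 °C) had been EDTA-quenched, so only refolded MDH activity is probed.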
On the technique in general: The purpose of a counterscreen is to sort out artefacts and off-target activity.

Data set [1] deals with Methicillin resistant S. aureus (MRSA) (ATCC BAA-44). In words: Bacterial proliferation assay, MRSA. The format is cell-based, Staphylococcus aureus. The conditions noted are these: Staphylococcus aureus. The essentials: (§1)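 Cultures in BHI broth with 25 mg/L Ca2+ and 12.5 mg/L Mg2+ were diluted to OD600 0.017 and exposed to compounds in 384-well plates at 37 °C without shaking. OD600 was read at 6-8 h (S. aureus, E. cloacae, P. aeruginosa) or 24 h (A. baumannii). EC50 values were averaged over quadruplicates.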

Data set [2] relates to Klebsiella Pneumonia (ATCC 13883). Nature of the data set: Bacterial proliferation assay, K. pneumoniae. The format is cell-based. The essentials: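 Klebsiella pneumoniae ATCC 13883 was cultured in Brain Heart Infusion medium supplemented with 25 mg/L Ca^2+ and 12.5 mg/L Mg^2+. Cells were diluted to OD600 0.017, and 30 μL was added to 384-well plates holding 0.5 μL compound in 20 μL media. Plates were incubated stagnantly at 37° C., and OD600 was read at 6-8 h to determine EC50.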

The test system of data set [3] is Acinetobacter baumannii (ATCC 19606). Nature of the data set: Bacterial proliferation assay, A. baumannii. Type of data set: cell-based. The essentials:
as §1

Another data set can be described thus: in vitro. Particulars: human. As to the method:
HEK 293 cells were maintained in MEM medium (Corning Cellgro, 10-009 CV) supplemented with 10% FBS (Sigma, F2242). […] Cells at 80% confluence were harvested and diluted in growth medium, then 45 μL of the THLE-3 cells (1,500 cells/well) or HEK 293 cells (1,500 cells/well) were dispensed per well, and plates were sealed with “Breathe Easy” oxygen permeable membranes (Diversified Biotech) and incubated at 37° C., 5% CO2, for 24 h.

The mark [4] stands for this setting: log of IC50 (μM scale), with standard deviation, read-out: log(IC50) Native MDH Reporter (converted).
Setting [5] is: read-out: Biochemical Assay IC50 Native MDH Reporter.
Setting [6] is: MRSA, log of EC50 (μM scale), with standard deviation, read-out: log(EC50) Bacterial Proliferation Assay S. aureus Resistant (converted).
Setting [7] is: ATCC13883, OD600 at 6-8 h, read-out: Bacterial Proliferation EC50 K. pneumoniae.
Setting [8] is: ATCC13883, log of EC50 (μM scale), with standard deviation, read-out: log(EC50) Bacterial Proliferation Assay K. pneumoniae (converted).
The mark [9] stands for this setting: ATCC19606, OD600 at 24 h, read-out: Bacterial Proliferation EC50 A. baumannii.
The mark [10] stands for this setting: ATCC19606, log of EC50 (μM scale), with standard deviation, read-out: log(EC50) Bacterial Proliferation Assay A. baumannii (converted).
Where [11] appears, read: read-out: log(EC50) Bacterial Proliferation Assay S. aureus Resistant (converted).
Where [12] appears, read: ATCC13883, read-out: Bacterial Proliferation EC50 K. pneumoniae.
Setting [13] is: ATCC13883, read-out: log(EC50) Bacterial Proliferation Assay K. pneumoniae (converted).
The mark [14] stands for this setting: ATCC19606, 24 h, read-out: Bacterial Proliferation EC50 A. baumannii.
[15] abbreviates: ATCC19606, read-out: log(EC50) Bacterial Proliferation Assay A. baumannii (converted).
Setting [16] is: MRSA, OD600 at 6-8 h, read-out: Bacterial Proliferation EC50 S. aureus Resistant.

Consider `COc1ccccc1C(=O)Nc1ccccc1` [Compound 44, 2-Methoxy-N-phenylbenzamide], for which the IC50 at native MDH (setting [4]) is greater than 63.1 µM; on native MDH (setting [5]), greater than 63 µM. For the same compound, the EC50 in data set [1] (setting [6]), in data set [2] (setting [7]), in data set [2] (setting [8]), in data set [3] (setting [9]) and in data set [3] (setting [10]) was greater than 100 µM in each case. The CC50 at 48 h in the data set “in vitro” is greater than 100 µM.

`COc1ccccc1C(=O)Nc1ccc(Sc2nc3ccccc3s2)cc1` [Compound 36, N-(4-(Benzo[d]thiazol-2-ylthio)phenyl)-2-methoxybenzamide]: the values for the IC50 on native MDH (setting [4]) and on native MDH (setting [5]) were greater than 63.1 µM and greater than 63 µM, respectively. The EC50 in data set [1] (setting [6]), in data set [2] (setting [7]), in data set [2] (setting [8]), in data set [3] (setting [9]) and in data set [3] (setting [10]) was greater than 100 µM each time. For the same compound, the CC50 at 48 h in “in vitro” is greater than 100 µM.

Turning to `O=C(Nc1ccccc1)c1cc(Br)cc(Br)c1O` [Compound 13, 3,5-Dibromo-2-hydroxy-N-phenylbenzamide], the values for the IC50 on native MDH (setting [4]) and on native MDH (setting [5]) were 50.1 µM and 51 µM, respectively. The EC50 in data set [1] (read-out: Bacterial Proliferation EC50 S. aureus Resistant) was 2 µM; in data set [1] (setting [11]), 2 µM; in data set [2] (setting [12]) it was greater than 100 µM; in data set [2] (setting [13]), greater than 100 µM; in data set [3] (setting [14]), greater than 100 µM; in data set [3] (setting [15]), greater than 100 µM. Also, the CC50 at 48 h in “in vitro” was 33.9 µM.

Consider `Cc1cc(C(C#N)c2ccc(Cl)cc2)c(Cl)cc1NC(=O)c1cc(I)cc(I)c1O` (stereo not drawn) [Closantel, closantel, reference compound], for which the “inhibition of native MDH enzymatic activity (in words)” value against native MDH (false-positive counter-screen) is recorded as “inhibit native MDH”. Moreover, on native MDH (log of IC50 (μM scale), with standard deviation), the “log(IC50) Native MDH Reporter” value turned out to be 0.79 ± 0.17. Further, the EC50 in data set [1] (setting [11]) was 0.468 µM; in data set [2] (setting [12]), greater than 100 µM; in data set [2] (setting [13]) it was greater than 100 µM; in data set [3] (setting [14]), greater than 100 µM; in data set [3] (setting [15]), greater than 100 µM. For the same compound, in “in vitro” (HEK 293 kidney cells), the CC50 at 48 h is 75.9 µM.

On to `COc1c(Br)cc(Br)cc1C(=O)Nc1cccc(Cl)c1` [Compound 37, 3,5-Dibromo-N-(3-chlorophenyl)-2-methoxybenzamide], for which the IC50 is greater than 63.1 µM on native MDH (setting [4]) and greater than 63 µM on native MDH (setting [5]). Further, the EC50 in data set [1] (setting [16]), in data set [1] (setting [6]), in data set [2] (setting [7]), in data set [2] (setting [8]), in data set [3] (setting [9]) and in data set [3] (setting [10]) was greater than 100 µM in each case. The CC50 at 48 h in the data set “in vitro” is greater than 100 µM.

On to `COc1ccc(Br)cc1C(=O)Nc1ccccc1` [Compound 43, 5-Bromo-2-methoxy-N-phenylbenzamide], for which the IC50 at native MDH (setting [4]) was greater than 63.1 µM; at native MDH (setting [5]), greater than 63 µM. The EC50 in data set [1] (setting [6]), in data set [2] (setting [7]), in data set [2] (setting [8]), in data set [3] (setting [9]) and in data set [3] (setting [10]) was greater than 100 µM in each case. Besides, the CC50 at 48 h in the data set “in vitro” is greater than 100 µM.

In the case of `CO[C@H]1/C=C/O[C@@]2(C)Oc3c(C)c(O)c4c(O)c(c(/C=N/N5CCN(C)CC5)c(O)c4c3C2=O)NC(=O)/C(C)=C\C=C\[C@H](C)[C@H](O)[C@@H](C)[C@@H](O)[C@@H](C)[C@H](OC(C)=O)[C@@H]1C` [Rifampicin, rifampicin, reference compound], the IC50 on native MDH (setting [4]) was greater than 63.1 µM. Also, the EC50 in data set [1] (setting [16]) was 0.23 µM; in data set [1] (setting [6]), 0.229 µM; in data set [2] (setting [7]), 11 µM; in data set [2] (setting [8]) it was 11 µM; in data set [3] (setting [9]), 1.3 µM; in data set [3] (setting [10]), 1.32 µM. Besides, the CC50 at 48 h in “in vitro” was greater than 100 µM.

With `COc1c(Br)cccc1C(=O)Nc1cccc(Cl)c1` [Compound 38], the IC50 is greater than 63.1 µM on native MDH (setting [4]) and greater than 63 µM at native MDH (setting [5]). Moreover, the EC50 in data set [1] (setting [6]), in data set [2] (setting [7]), in data set [2] (setting [8]), in data set [3] (setting [9]) and in data set [3] (setting [10]) was greater than 100 µM each time. In addition, the CC50 at 48 h in the data set “in vitro” is greater than 100 µM.
